Results as given in paper PMC7531004, “Discovery of gramicidin A analogues with altered activities by multidimensional screening of a one-bead-one-compound library” (Nature Communications, 2020).
Where a SMILES comes first, the peptide text is derived from it. [ ]: non-standard residue; d: D form. The star is where a group is joined. NHCH2CH2OH = OCCN*; For = O=C*

Columns and labels:
[1] = tested on: Streptococcus pyogenes SSI-9; test: Antibacterial activity assay of bead-derived peptides (three concentrations); format: cell-based; parameters: key: +++: inhibition by the 640-fold diluted peptide solution; ++: inhibition by the 160-fold diluted solution; +: inhibition by the 40-fold diluted solution; -: no inhibition; conditions: S. pyogenes, bead-derived peptide solution, three concentrations
Outline: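 Undiluted, 4-fold and 16-fold DMSO-diluted peptide stocks; S. pyogenes SSI-9, 2 × 10^5 CFU, cation-adjusted MHB (50 mg/L Ca2+, 25 mg/L Mg2+) + 5% laked horse blood; 37 °C, 18 h; readout = cell pellet visible or not.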

[2] = cell viability/%
Outline: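 P388 cells at 1 × 10^4 cells/mL (final) were exposed to library peptides (stocks diluted 250-fold in RPMI1640/10% FBS) for 92 h at 37 °C, 5% CO2. Viable cells were counted by WST-1/1-methoxy PMS (4 h), absorbance 415 nm, and expressed as cell viability (%).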

[3] = H+/Na+ transport assay of bead-derived peptides (one-point); format: biochemical; parameters: key: relative activity; mean of two control wells = 1.00; conditions: bead-derived peptide solution, EYPC/EYPG LUVs;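 further: relative to parent gramicidin A activity set to 1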
Outline: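 One-point screen: peptide + pyranine-loaded LUVs, 30 min RT with vortexing, 96-well. Read-out is fluorescence intensity scaled as 100 × (Ix – I0)/(Imax – I0). Imax from Triton X-100, I0 from untreated vesicles, and the mean of the two control wells is set to 1.00.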

Row | SMILES | antibacterial activity [1] | viability [2] | H+/Na+ transport activity normalized against the value of 1 (1.00) [3]
1 | CC(C)C[C@@H](NC(=O)[C@H](C)NC(=O)CNC(=O)[C@@H](NC=O)C(C)C)C(=O)N[C@@H](C)C(=O)N[C@H](CC(C)C)C(=O)N[C@H](C(=O)N[C@H](CC(C)C)C(=O)N[C@@H](Cc1c[nH]c2ccccc12)C(=O)N[C@H](CC(C)C)C(=O)N[C@@H](Cc1c[nH]c2ccccc12)C(=O)N[C@H](CC(C)C)C(=O)N[C@@H](Cc1c[nH]c2ccccc12)C(=O)N[C@H](CC(C)C)C(=O)N[C@@H](Cc1c[nH]c2ccccc12)C(=O)NCCO)C(C)C [compound 2904] (For-VGA[dL]A[dL]V[dL]W[dL]W[dL]W[dL]W-NHCH2CH2OH) | - | 12.5% | 1.09
2 | CC(C)C[C@@H](NC(=O)[C@H](C)NC(=O)CNC(=O)[C@@H](NC=O)C(C)C)C(=O)N[C@@H](C)C(=O)N[C@@H](C(=O)N[C@H](C(=O)N[C@@H](C(=O)N[C@@H](Cc1c[nH]c2ccccc12)C(=O)N[C@@H](C(=O)N[C@@H](Cc1c[nH]c2ccccc12)C(=O)N[C@@H](C(=O)N[C@@H](Cc1c[nH]c2ccccc12)C(=O)N[C@H](CC(C)C)C(=O)N[C@@H](Cc1c[nH]c2ccccc12)C(=O)NCCO)C(C)C)C(C)C)C(C)C)C(C)C)C(C)C [compound 5056] (For-VGA[dL]A[dV]V[dV]W[dV]W[dV]W[dL]W-NHCH2CH2OH) | + | 100% | 1.01
3 | CC(C)C[C@@H](NC(=O)[C@H](C)NC(=O)CNC(=O)[C@@H](NC=O)C(C)C)C(=O)N[C@@H](C)C(=O)N[C@@H](C(=O)N[C@H](C(=O)N[C@H](CC(C)C)C(=O)N[C@@H](Cc1c[nH]c2ccccc12)C(=O)N[C@H](CC(C)C)C(=O)N[C@@H](Cc1c[nH]c2ccccc12)C(=O)N[C@@H](C(=O)N[C@@H](Cc1c[nH]c2ccccc12)C(=O)N[C@@H](C(=O)N[C@@H](Cc1c[nH]c2ccccc12)C(=O)NCCO)C(C)C)C(C)C)C(C)C)[C@H](C)O [compound 1898] (For-VGA[dL]A[dT]V[dL]W[dL]W[dV]W[dV]W-NHCH2CH2OH) | - | 100% | 1.07
4 | CC(C)C[C@@H](NC(=O)[C@H](C)NC(=O)[C@H](NC(=O)[C@H](C)NC(=O)CNC(=O)[C@@H](NC=O)C(C)C)C(C)C)C(=O)N[C@H](C(=O)N[C@H](CC(C)C)C(=O)N[C@@H](Cc1c[nH]c2ccccc12)C(=O)N[C@H](CC(C)C)C(=O)N[C@@H](Cc1c[nH]c2ccccc12)C(=O)N[C@@H](C(=O)N[C@@H](Cc1c[nH]c2ccccc12)C(=O)N[C@@H](C(=O)N[C@@H](Cc1c[nH]c2ccccc12)C(=O)NCCO)C(C)C)C(C)C)C(C)C [compound 9247] (For-VGA[dV]A[dL]V[dL]W[dL]W[dV]W[dV]W-NHCH2CH2OH) | + | 6% | 1.02
5 | CC(C)[C@H](NC=O)C(=O)NCC(=O)N[C@@H](C)C(=O)N[C@@H](C(=O)N[C@@H](C)C(=O)N[C@@H](C(=O)N[C@H](C(=O)N[C@@H](C(=O)N[C@@H](Cc1c[nH]c2ccccc12)C(=O)N[C@@H](C(=O)N[C@@H](Cc1c[nH]c2ccccc12)C(=O)N[C@@H](C(=O)N[C@@H](Cc1c[nH]c2ccccc12)C(=O)N[C@@H](C(=O)N[C@@H](Cc1c[nH]c2ccccc12)C(=O)NCCO)[C@H](C)O)C(C)C)C(C)C)C(C)C)C(C)C)C(C)C)C(C)C [compound 1983] (For-VGA[dV]A[dV]V[dV]W[dV]W[dV]W[dT]W-NHCH2CH2OH) | - | 100% | 1.00
6 | CC(C)C[C@@H](NC(=O)[C@H](C)NC(=O)CNC(=O)[C@@H](NC=O)C(C)C)C(=O)N[C@@H](C)C(=O)N[C@@H](C(=O)N[C@H](C(=O)N[C@@H](C(=O)N[C@@H](Cc1c[nH]c2ccccc12)C(=O)N[C@H](CC(C)C)C(=O)N[C@@H](Cc1c[nH]c2ccccc12)C(=O)N[C@H](CC(C)C)C(=O)N[C@@H](Cc1c[nH]c2ccccc12)C(=O)N[C@@H](C(=O)N[C@@H](Cc1c[nH]c2ccccc12)C(=O)NCCO)[C@H](C)O)C(C)C)C(C)C)[C@H](C)O [compound 6873] (For-VGA[dL]A[dT]V[dV]W[dL]W[dL]W[dT]W-NHCH2CH2OH) | - | 100% | 1.15
7 | CC(C)C[C@@H](NC(=O)[C@H](Cc1c[nH]c2ccccc12)NC(=O)[C@@H](CC(C)C)NC(=O)[C@H](Cc1c[nH]c2ccccc12)NC(=O)[C@@H](CC(C)C)NC(=O)[C@H](Cc1c[nH]c2ccccc12)NC(=O)[C@H](NC(=O)[C@@H](NC(=O)[C@H](NC(=O)[C@H](C)NC(=O)[C@H](NC(=O)[C@H](C)NC(=O)CNC(=O)[C@@H](NC=O)C(C)C)[C@H](C)O)C(C)C)C(C)C)C(C)C)C(=O)N[C@@H](Cc1c[nH]c2ccccc12)C(=O)NCCO [compound 3786] (For-VGA[dT]A[dV]V[dV]W[dL]W[dL]W[dL]W-NHCH2CH2OH) | - | 100% | 1.18
8 | CC(C)C[C@@H](NC(=O)[C@H](C)NC(=O)CNC(=O)[C@@H](NC=O)C(C)C)C(=O)N[C@@H](C)C(=O)N[C@@H](C(=O)N[C@H](C(=O)N[C@H](CC(C)C)C(=O)N[C@@H](Cc1c[nH]c2ccccc12)C(=O)N[C@@H](C(=O)N[C@@H](Cc1c[nH]c2ccccc12)C(=O)N[C@H](CC(C)C)C(=O)N[C@@H](Cc1c[nH]c2ccccc12)C(=O)N[C@H](CC(C)C)C(=O)N[C@@H](Cc1c[nH]c2ccccc12)C(=O)NCCO)C(C)C)C(C)C)C(C)C [compound 7532] (For-VGA[dL]A[dV]V[dL]W[dV]W[dL]W[dL]W-NHCH2CH2OH) | + | 3.9% | 1.03
9 | CC(C)C[C@@H](NC(=O)[C@H](C)NC(=O)CNC(=O)[C@@H](NC=O)C(C)C)C(=O)N[C@@H](C)C(=O)N[C@@H](C(=O)N[C@H](C(=O)N[C@@H](C(=O)N[C@@H](Cc1c[nH]c2ccccc12)C(=O)N[C@@H](C(=O)N[C@@H](Cc1c[nH]c2ccccc12)C(=O)N[C@@H](C(=O)N[C@@H](Cc1c[nH]c2ccccc12)C(=O)N[C@@H](C(=O)N[C@@H](Cc1c[nH]c2ccccc12)C(=O)NCCO)C(C)C)C(C)C)C(C)C)C(C)C)C(C)C)C(C)C [compound 725] (For-VGA[dL]A[dV]V[dV]W[dV]W[dV]W[dV]W-NHCH2CH2OH) | + | 100% | 1.10
10 | CC(C)C[C@@H](NC(=O)[C@H](Cc1c[nH]c2ccccc12)NC(=O)[C@H](NC(=O)[C@H](Cc1c[nH]c2ccccc12)NC(=O)[C@H](NC(=O)[C@H](Cc1c[nH]c2ccccc12)NC(=O)[C@H](NC(=O)[C@@H](NC(=O)[C@H](NC(=O)[C@H](C)NC(=O)[C@H](NC(=O)[C@H](C)NC(=O)CNC(=O)[C@@H](NC=O)C(C)C)C(C)C)C(C)C)C(C)C)[C@H](C)O)C(C)C)C(C)C)C(=O)N[C@@H](Cc1c[nH]c2ccccc12)C(=O)NCCO [compound 5542] (For-VGA[dV]A[dV]V[dT]W[dV]W[dV]W[dL]W-NHCH2CH2OH) | - | 100% | 1.17
11 | CC(C)C[C@@H](NC(=O)[C@H](C)NC(=O)[C@H](NC(=O)[C@H](C)NC(=O)CNC(=O)[C@@H](NC=O)C(C)C)C(C)C)C(=O)N[C@H](C(=O)N[C@H](CC(C)C)C(=O)N[C@@H](Cc1c[nH]c2ccccc12)C(=O)N[C@H](CC(C)C)C(=O)N[C@@H](Cc1c[nH]c2ccccc12)C(=O)N[C@@H](C(=O)N[C@@H](Cc1c[nH]c2ccccc12)C(=O)N[C@@H](C(=O)N[C@@H](Cc1c[nH]c2ccccc12)C(=O)NCCO)[C@H](C)O)C(C)C)C(C)C [compound 3828] (For-VGA[dV]A[dL]V[dL]W[dL]W[dV]W[dT]W-NHCH2CH2OH) | + | 95.2% | 1.02
12 | CC(C)C[C@@H](NC(=O)[C@H](C)NC(=O)[C@H](NC(=O)[C@H](C)NC(=O)CNC(=O)[C@@H](NC=O)C(C)C)C(C)C)C(=O)N[C@H](C(=O)N[C@@H](C(=O)N[C@@H](Cc1c[nH]c2ccccc12)C(=O)N[C@@H](C(=O)N[C@@H](Cc1c[nH]c2ccccc12)C(=O)N[C@@H](C(=O)N[C@@H](Cc1c[nH]c2ccccc12)C(=O)N[C@@H](C(=O)N[C@@H](Cc1c[nH]c2ccccc12)C(=O)NCCO)C(C)C)C(C)C)C(C)C)[C@H](C)O)C(C)C [compound 3492] (For-VGA[dV]A[dL]V[dT]W[dV]W[dV]W[dV]W-NHCH2CH2OH) | - | 100% | 1.12
13 | CC(C)C[C@@H](NC(=O)[C@H](C)NC(=O)[C@H](NC(=O)[C@H](C)NC(=O)CNC(=O)[C@@H](NC=O)C(C)C)C(C)C)C(=O)N[C@H](C(=O)N[C@@H](C(=O)N[C@@H](Cc1c[nH]c2ccccc12)C(=O)N[C@@H](C(=O)N[C@@H](Cc1c[nH]c2ccccc12)C(=O)N[C@H](CC(C)C)C(=O)N[C@@H](Cc1c[nH]c2ccccc12)C(=O)N[C@H](CC(C)C)C(=O)N[C@@H](Cc1c[nH]c2ccccc12)C(=O)NCCO)C(C)C)C(C)C)C(C)C [compound 1406] (For-VGA[dV]A[dL]V[dV]W[dV]W[dL]W[dL]W-NHCH2CH2OH) | + | 91.1% | 1.04
